# In patent US20080096933A1, “4-Pyridinylethylcarboxamide Derivatives Useful as Fungicides” (priority 2004, published 2008):
# How the values were obtained:
# [1] = system: Botrytis cinerea; experiment: Effectiveness on Botrytis cinerea at 330 ppm; format: in vivo
# [2] = system: Alternaria brassicae; experiment: Effectiveness on Alternaria brassicae at 330 ppm; format: in vivo
# [3] = system: Peronospora parasitica; experiment: Efficacy against Peronospora parasitica at 330 ppm; format: in vivo
# [4] = system: Pyrenophora teres; experiment: In vivo test on Pyrenophora teres (barley net blotch); settings: barley plants (Express variety), preventive spray, dose of 330 ppm, grading 12 days after contamination, in comparison with control plants
# Experimental: In Vivo Test on Pyrenophora teres (Barley Net Blotch)
# The active ingredient tested is prepared by potter homogenisation in a concentrated suspension type formulation at 100 g/l. This suspension is then diluted with water to obtain the desired active material concentration.
# Barley plants (Express variety) in starter cups, sown on a 50/50 peat soil-pozzolana substrate and grown at 12° C., are treated at the 1-leaf stage (10 cm tall) by spraying with the aqueous suspension described above. Plants, used as controls, are treated with an aqueous solution not containing the active material.
# After 24 hours, the plants are contaminated by spraying them with an aqueous suspension of Pyrenophora teres spores (12,000 spores per ml). The spores are collected from a 12-day-old culture The contaminated barley plants are incubated for 24 hours at about 20° C. and at 100% relative humidity, and then for 12 days at 80% relative humidity.
# Grading is carried out 12 days after the contamination, in comparison with the control plants. Under these conditions, good (at least 50%) or total protection is observed at a dose of 330 ppm with the following compounds: A-1.
SMILES,effectiveness on Botrytis cinerea [1],effectiveness on Alternaria brassicae [2],efficacy against Peronospora parasitica [3],protection (good (at least 50%) or total) [4]
"CCNC(=O)C(Cc1ncc(C(F)(F)F)cc1Cl)NC(=O)c1cccc([N+](=O)[O-])c1 (stereo not shown) [compound 307, N-{1-ethylcarbamoyl-2-[3-chloro-5-(trifluoromethyl)-2-pyridinyl]ethyl}-3-nitrobenzamide]",zero effectiveness,poor effectiveness,,
"CCNC(=O)C(Cc1ncc(C(F)(F)F)cc1Cl)NC(=O)c1ccccc1 (stereo not shown) [compound 304, N-{1-ethylcarbamoyl-2-[3-chloro-5-(trifluoromethyl)-2-pyridinyl]ethyl}-benzamide]",zero effectiveness,,,
"O=C(Cc1cccs1)NCc1ncc(C(F)(F)F)cc1Cl [compound 101, N-{[3-chloro-5-(trifluoromethyl)-2-pyridinyl]methyl}-5-thienylacetamide]",no efficacy,poor efficacy,no efficacy,
"CCNC(=O)C(Cc1ncc(C(F)(F)F)cc1Cl)NC(=O)c1ccccc1Br (stereo not shown) [compound 310, N-{1-ethylcarbamoyl-2-[3-chloro-5-(trifluoromethyl)-2-pyridinyl]ethyl}-2-bromobenzamide]",zero effectiveness,,,
"CCNC(=O)C(Cc1ncc(C(F)(F)F)cc1Cl)NC(=O)c1ccc(Cl)cc1 (stereo not shown) [compound 306, N-{1-ethylcarbamoyl-2-[3-chloro-5-(trifluoromethyl)-2-pyridinyl]ethyl}-4-chlorobenzamide]",zero effectiveness,,,
"CNC(=O)C(Cc1ncc(C(F)(F)F)cc1Cl)NC(=O)c1ccc(OC)cc1 (stereo not shown) [compound 315, N-{1-methylcarbamoyl-2-[3-chloro-5-(trifluoromethyl)-2-pyridinyl]ethyl}-4-methoxybenzamide]",zero effectiveness,,,
"CNC(=O)C(Cc1ncc(C(F)(F)F)cc1Cl)NC(=O)c1ccc(-c2ccccc2)cc1 (stereo not shown) [compound 316, N-{1-methylcarbamoyl-2-[3-chloro-5-(trifluoromethyl)-2-pyridinyl]ethyl}-4-phenylbenzamide]",zero effectiveness,poor effectiveness,,
"Cn1cc(C(=O)NCCc2c(F)c(F)nc(F)c2F)c(C(F)F)n1 [Compound A-1, 3-(difluoromethyl)-1-methyl-N-[2-(2,3,5,6-tetrafluoro-4-pyridinyl)ethyl]-1H-pyrazole-4-carboxamide]",,,,at least 50%
"CNC(=O)C(Cc1ncc(C(F)(F)F)cc1Cl)NC(=O)c1ccccc1 (stereo not shown) [compound 314, N-{1-methylcarbamoyl-2-[3-chloro-5-(trifluoromethyl)-2-pyridinyl]ethyl}-benzamide]",zero effectiveness,,,
